Measurements reported in article PMC12650265 (The Journal of Experimental Medicine, 2025).
“Also recorded” adds a separate entry of the source.

Legend:
[1] = tested on: Vγ9Vδ2 T cells; assay: Vγ9Vδ2 T cell activation by zoledronate in PBMCs; assay type: cell-based, human; settings: PBMCs titrated with ligand in the presence of zoledronate
[2] = tested on: CD3^+ MR1-5-OP-RU tetramer^+ MAIT cells; assay: MAIT cell proliferation in CTV-labeled PBMCs; assay type: cell-based, human; settings: 7-day culture, 5-OP-RU 10 µM, others 100 µM
[3] = tested on: T1, folded MR1 in C1R.MR1 cells; assay: intracellular total folded MR1 by flow cytometry (8F2.F9); assay type: cell-based, human; settings: 16 h, 100 µM
T1 construct: expressed in transfected cells; host or cells: C1R B lymphoblastoid cells transduced with MR1*01

[4] = tested on: MAIT and TRAV1-2^−ve cells from PBMCs; assay: TCR-independent or bead stimulation of PBMCs (PMA and ionomycin, αCD3/αCD28 beads); assay type: cell-based, human; settings: PBMCs preincubated, then αCD3- and αCD28-coated beads
[5] = tested on: MAIT cells from PBMCs; assay: primary MAIT cell activation in PBMCs (CD69, TNF); assay type: cell-based, human; settings: 18 h, in the presence of 5-OP-RU or 5-A-RU
[6] = tested on: SKW-3-MAV36 line; assay: SKW-3 reporter T cell activation (CD69), coculture with C1R.MR1; assay type: cell-based; settings: SKW-3-MAV36, in the presence of 5-OP-RU
Method: (§1) Given the intracellular MR1 retention induced by the RF catabolites, we anticipated that these ligands could influence the activity of MR1-reactive T cells. First, we utilized a system whereby reporter SKW-3 T cell lines were cocultured with C1R.MR1 APCs and activation was determined by CD69 expression. […] In contrast, SKW-3-MBV28 cells were inhibited by alloxazine but activated by lumichrome (Fig. S3, D–F). Two MR1-restricted TRAV1-2^−ve SKW-3 T cell lines were also tested.
(§2) C1R.MR1 cells (1 × 10^5) were initially stained with CTV (Thermo Fisher Scientific) for 15 min and then incubated with RF catabolites for 20 h. […] Cells were subsequently stained with PE-Cy7-conjugated anti-CD69 (1:100; BD Biosciences) and PE-labeled anti-MR1 (1:100, clone 26.5; BD Biosciences), before analysis on a LSRFortessa (BD Biosciences) flow cytometer. Activation of the SKW-3 cells was reflected by the cell surface CD69 expression.

[7] = tested on: SKW-3 cells expressing MAIT TCR AF-7; assay: as above; assay type: cell-based
Method: as §1, §2

[8] = tested on: SKW-3-DGB129 line; assay: as above; assay type: cell-based; settings: SKW-3-DGB129 cocultured with C1R.MR1
Method: as §1, §2

[9] = tested on: SKW-3 cells expressing MAIT TCR MBV28; assay: as above; assay type: cell-based; settings: SKW-3-MBV28, in the presence of 5-OP-RU
Method: as §1, §2

[10] = tested on: T2, surface MR1*01 on C1R.MR1 cells; assay: quantification of cell surface MR1 by flow cytometry, C1R.MR1 cells; assay type: cell-based, human
T2 construct: expressed in transfected cells; host or cells: C1R B lymphoblastoid cells transduced with MR1*01

[11] = tested on: T3, MR1 on PBMC-derived B lymphocytes; assay: MR1 surface expression on primary B cells; assay type: cell-based; settings: primary human B cells, 16 h, highest doses, with or without 5-OP-RU
T3 construct: we also measured MR1 on the surface of cells expressing wild-type levels of MR1; endogenous in cells; host or cells: PBMC-derived B lymphocytes from healthy human donors

[12] = tested on: T4, MR1^R9H; assay: refolding of MR1^R9H with ligand in solution; assay type: binding, human
T4 construct: plasmids encoding for the extracellular domains of MR1, β2m, and the AF-7 TCRα and TCRβ chains; made in house
Description: (§3) We then tested the effect of the RF catabolites on the expression of two mutant versions of MR1 termed MR1^R9H ([Howson et al., 2020]) and MR1^K43A ([Reantragoon et al., 2013]). First, we tested the MR1^R9H mutant ([Howson et al., 2020]), which represents a rare, natural human polymorph. […] We used C1R.MR1^R9H cells, which are produced by stable transduction of wild-type C1R cells, which express low levels of wild-type MR1, with a vector expressing the MR1^R9H mutant ([Howson et al., 2020]). […] When C1R. […] Next, we sought to understand how the previously characterized K43A mutation affects ligand binding.
Escherichia coli BL21(DE3) cells were transformed with plasmids encoding for the extracellular domains of MR1, β2m, and the AF-7 TCRα and TCRβ chains ([Kjer-Nielsen et al., 2012]; [Patel et al., 2013]; [Wang et al., 2022a]). The proteins were then expressed, and the inclusion bodies were purified, cleaned, and used for refolding. For both MR1 and AF-7 TCR, inclusion bodies were refolded through rapid dilution overnight as previously mentioned ([Keller et al., 2017]). To refold MR1 with ligands, 58 mg MR1 inclusion bodies along with 30 mg of β2m inclusion bodies were placed in 500 ml of refold buffer consisting of 0.1 M Tris, pH 8.0, 5 M of urea, 2 mM EDTA, 2.5 mM oxidized glutathione, 20 mM reduced glutathione, and 0.4 M of L-arginine for 16 h at 4°C. […]

[13] = tested on: soluble WT MR1; assay: fluorescence-based thermal shift (thermostability) assay of MR1–ligand complexes; assay type: binding, human; settings: MR1 refolded with the ligand; SYPRO Orange, 28 to 95°C; three independent experiments; listed as MR1-Lumichrome
[14] = target: T5, hMR1 protein (Homo sapiens, UniProt Q95460); assay: fluorescence polarization–based cell-free assay, competition with JYM20 for MR1 binding; settings: 50% inhibition of 10 nM JYM20 binding to 100 nM empty hMR1, 37°C; three independent experiments in triplicate
T5 construct: plasmids encoding for the extracellular domains of MR1, β2m, and the AF-7 TCRα and TCRβ chains; made in house; host or cells: Escherichia coli BL21(DE3)

[15] = tested on: T6, human MR1–β2-microglobulin (β2m) complex; assay: refolding of recombinant MR1-β2m with ligand; assay type: binding; settings: ligand added to refolding buffer; gel filtration and SDS-PAGE
T6 construct: plasmids encoding for the extracellular domains of MR1, β2m, and the AF-7 TCRα and TCRβ chains; made in house

[16] = tested on: T7, MR1^K43A on C1R.MR1^K43A cells; assay: cell surface MR1^K43A by flow cytometry; assay type: cell-based, human
T7 construct: expressed in transfected cells; host or cells: C1R cells overexpressing MR1^K43A
Description: as §3
The level of MR1 expressed on the cell surface was measured after the exposure to the investigated ligands as previously described ([Awad et al., 2020a]; [Wang et al., 2022a]). C1R Ag-presenting B lymphocytes overexpressing MR1*01 (C1R.MR1), MR1^K43A mutant (C1R.MR1^K43A), MR1^R9H mutant (C1R.MR1^R9H), or HLA-A*02:01 (C1R-A2), in addition to the monocytic THP-1-MR1 cells, were used in this study. 2 × 10^5 cells were incubated with RF catabolites for 3 or 16 h at 37°C and 5% CO2 in 200 μl folate-free RPMI 1640 medium from Gibco (Cat. No. 11875-093) fortified with 10% fetal bovine serum, sodium pyruvate (1 mmol/L), HEPES buffer (15 mmol/L), pH 7.2–7.5, 2% penicillin (100 U/ml), streptomycin ([…]), GlutaMAX (2 mmol/L), nonessential amino acids (0.1 mmol/L) (all from Thermo Fisher Scientific, Life Technologies), and 2-mercaptoethanol ([…], Sigma-Aldrich) (RF-10). After incubation, the cells were first stained with Zombie Aqua Fixable Viability Kit from BioLegend (Cat. No. 423102) and then incubated with biotinylated 8F2F9 αMR1 antibody for 30 min on ice. The unbound antibody was then washed off with 2% fetal bovine serum/PBS (called 2% FACS hereafter) buffer. The cells were finally incubated with PE-conjugated streptavidin (30 μg/ml; BioLegend) and then washed with 2% FACS buffer. The PE fluorescence intensity reflects the surface MR1 level. The data were acquired with LSRFortessa X-20 (BD Biosciences) and Diva software (BD Biosciences) and analyzed using FlowJo software (BD Biosciences).

T5 sequence (Q95460 23-302 limits assumed): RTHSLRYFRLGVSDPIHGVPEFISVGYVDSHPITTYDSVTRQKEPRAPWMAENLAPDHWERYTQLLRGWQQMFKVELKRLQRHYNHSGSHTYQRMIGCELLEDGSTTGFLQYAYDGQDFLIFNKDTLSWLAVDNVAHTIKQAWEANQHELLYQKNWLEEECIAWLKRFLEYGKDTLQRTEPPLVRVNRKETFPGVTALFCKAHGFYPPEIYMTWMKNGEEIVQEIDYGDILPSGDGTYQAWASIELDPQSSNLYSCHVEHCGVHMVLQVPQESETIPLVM
T5 sequence (P61769 21-119 partner): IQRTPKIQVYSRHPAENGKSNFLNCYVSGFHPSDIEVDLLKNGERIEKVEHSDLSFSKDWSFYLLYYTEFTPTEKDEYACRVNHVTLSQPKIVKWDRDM

SMILES: Cc1cc2nc3[nH]c(=O)[nH]c(=O)c3nc2cc1C [Lumichrome, 7,8-dimethylalloxazine]
- Vγ9Vδ2 T cell activation induced by zoledronate (% CD69^+ Vδ2^+) [1]: did not interfere
- MAIT cell proliferation [2]: significantly reduced MAIT cell proliferation
- total level of folded MR1 (intracellular staining with 8F2.F9) [3]: increased the total level of folded MR1
- CD69 upregulation by MAIT or TRAV1-2^−ve cells [4]: not reduced
- MAIT cell inhibition (CD69 MFI, % CD69^+, TNF production) [5]: most potent competitor showing the strongest MAIT cell inhibition
- reactivity to 5-OP-RU (CD69) [6]: inhibited
- reactivity to 5-OP-RU (CD69) ([7]; SKW-3-AF-7, in the presence of 1 nM 5-OP-RU): enhanced activation
- reactivity to RL-7-Me (CD69) ([7]; SKW-3-AF-7, in the presence of 100 nM RL-7-Me): inhibited in a dose-dependent manner
- reactivity of MR1 autoreactive, nucleobase-adduct reactive line (CD69) [8]: inhibited
- reactivity to 5-OP-RU (CD69) [9]: activated
- MR1 cell surface expression ([10]; C1R.MR1 cells, 3 h, 1–200 µM, 8F2F9 antibody): reduced MR1 cell surface
- rank as downregulator of MR1 cell surface expression ([10]; overall: lumichrome, then alloxazine, lumiflavin, FMF): most potent downregulator
- MR1 surface expression [11]: reduced MR1 surface expression
- refolding with MR1^R9H [12]: did not refold with MR1^R9H in solution; also recorded: unable to refold
- Tm50 (half-maximum melting temperature), Mean ± SD [13]: 49.89 ± 0.33 °C
- IC50 [14]: 12.5 µM
- folding of the MR1-β2m cocomplex in solution [15]: facilitated the correct folding of the MR1-β2m cocomplex
- MR1^K43A at the cell surface ([16]; 3 h): increased MR1^K43A at the cell surface
- MR1^K43A at the cell surface ([16]; 16 h): MR1 upregulation continues
